Source: PubChem BioAssay (NCI)
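Cells were grown in 96-well plates and exposed to each compound for 48 hours at five concentrations; endpoints were interpolated linearly between bracketing concentrations, or set to the highest concentration if not reached. The concentration for 50% growth inhibition is given as GI50. TGI marks complete inhibition of growth.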

Assays:
Experiment in all cases: NCI-60 cell line screen, 48 h
[1] = tested on: SK-MEL-2 melanoma
[2] = tested on: A549 NSCLC
[3] = tested on: SK-MEL-28 melanoma
[4] = tested on: EKVX NSCLC
[5] = tested on: MCF7 breast
[6] = tested on: 786-0 renal
[7] = tested on: LOX IMVI melanoma
[8] = tested on: OVCAR-8 ovarian
[9] = tested on: SN12C renal
[10] = tested on: RPMI-8226 leukemia
[11] = tested on: UO-31 renal
[12] = tested on: DU-145 prostate
[13] = tested on: HCT-15 colon
[14] = tested on: NCI-H460 lung
[15] = tested on: HS 578T breast
[16] = tested on: ACHN renal
[17] = tested on: RXF 393 renal
[18] = tested on: UACC-62 melanoma
[19] = tested on: K-562 leukemia
[20] = tested on: M14 melanoma
[21] = tested on: OVCAR-3 ovarian
[22] = tested on: PC-3 prostate
[23] = tested on: MOLT-4 leukemia
[24] = tested on: NCI/ADR-RES ovarian
[25] = tested on: SF-268 CNS
[26] = tested on: CAKI-1 renal
[27] = tested on: HOP-92 NSCLC
[28] = tested on: T-47D breast
[29] = tested on: NCI-H522 lung
[30] = tested on: NCI-H226 lung
[31] = tested on: A498 renal
[32] = tested on: HCC-2998 colon
[33] = tested on: MDA-MB-435
[34] = tested on: MDA-MB-231 breast
[35] = tested on: OVCAR-5 ovarian
[36] = tested on: UACC-257 melanoma
[37] = tested on: IGROV1 ovarian
[38] = tested on: NCI-H23 lung
[39] = tested on: SK-MEL-5 melanoma
[40] = tested on: SNB-19 CNS
[41] = tested on: HT29 colon
[42] = tested on: OVCAR-4 ovarian
[43] = tested on: SF-295 CNS
[44] = tested on: TK-10 renal
[45] = tested on: KM12 colon
[46] = tested on: HOP-62 NSCLC
[47] = tested on: SW-620 colon
[48] = tested on: HCT-116 colon
[49] = tested on: SK-OV-3 ovarian
[50] = tested on: SF-539 CNS
[51] = tested on: SNB-75 CNS
[52] = tested on: BT-549 breast
[53] = tested on: HL-60(TB) leukemia
[54] = tested on: U251 CNS
[55] = tested on: CCRF-CEM leukemia
[56] = tested on: COLO 205 colon
[57] = tested on: MALME-3M melanoma
[58] = tested on: SR leukemia

## O=c1oc2c(C(F)(F)F)cccc2cc1-c1csc(Nc2ccc(OCCF)cc2)n1
[1]
  GI50: 0.0593 µM
  TGI: > 39.9 µM
[2]
  GI50: 0.0391 µM
  TGI: 18.8 µM
[3]
  GI50: 1.32 µM
  TGI: > 66.4 µM
[4]
  GI50: 0.0556 µM
  TGI: > 100 µM
[5]
  GI50: 0.0427 µM
  TGI: > 37.6 µM
[6]
  GI50: 0.0611 µM
[7]
  GI50: 0.0467 µM
  TGI: > 42.2 µM
[8]
  GI50: 0.0393 µM
  TGI: 7.66 µM
[9]
  GI50: 0.271 µM
  TGI: > 64.4 µM
[10]
  GI50: 0.0406 µM
  TGI: 42.7 µM
[11]
  GI50: 0.0785 µM
  TGI: 22.5 µM
[12]
  GI50: 0.0462 µM
  TGI: > 50.8 µM
[13]
  GI50: 0.0389 µM
  TGI: > 100 µM
[14]
  GI50: 0.0357 µM
[15]
  GI50: 0.051 µM
  TGI: > 69.4 µM
[16]
  GI50: 0.0609 µM
  TGI: 13.5 µM
[17]
  GI50: 0.0343 µM
  TGI: 18.2 µM
[18]
  GI50: 0.0507 µM
  TGI: > 38.9 µM
[19]
  GI50: 0.0348 µM
  TGI: > 100 µM
[20]
  GI50: 0.0282 µM
  TGI: 1.14 µM
[21]
  GI50: 0.0357 µM
  TGI: 5.75 µM
[22]
  GI50: 0.0446 µM
  TGI: > 100 µM
[23]
  GI50: 0.0418 µM
  TGI: > 100 µM
[24]
  GI50: 0.0401 µM
  TGI: 66.5 µM
[25]
  GI50: 0.086 µM
  TGI: > 60.5 µM
[26]
  GI50: 0.0521 µM
  TGI: > 34.7 µM
[27]
  GI50: 0.0975 µM
  TGI: 3.88 µM
[28]
  GI50: 0.0797 µM
  TGI: > 100 µM
[29]
  GI50: 0.0216 µM
  TGI: 0.0766 µM
[30]
  GI50: 0.587 µM
  TGI: 72.3 µM
[31]
  GI50: 0.0353 µM
  TGI: 20.9 µM
[32]
  GI50: 0.0423 µM
  TGI: > 100 µM
[33]
  GI50: 0.0324 µM
  TGI: > 100 µM
[34]
  GI50: 0.0663 µM
  TGI: > 35.9 µM
[35]
  GI50: 0.231 µM
  TGI: > 100 µM
[36]
  GI50: 0.653 µM
  TGI: > 100 µM
[37]
  GI50: 0.0757 µM
  TGI: > 37 µM
[38]
  GI50: 0.0544 µM
  TGI: 23.4 µM
[39]
  GI50: 0.0658 µM
  TGI: 0.497 µM
[40]
  GI50: 0.0873 µM
  TGI: > 56.4 µM
[41]
  GI50: 0.032 µM
  TGI: 1.02 µM
[42]
  GI50: 0.077 µM
  TGI: > 66.7 µM
[43]
  GI50: 0.0286 µM
  TGI: 12.7 µM
[44]
  GI50: 0.0838 µM
  TGI: 81 µM
[45]
  GI50: 0.0375 µM
  TGI: 17.5 µM
[46]
  GI50: 0.0378 µM
  TGI: > 36.8 µM
[47]
  GI50: 0.0468 µM
  TGI: > 100 µM
[48]
  GI50: 0.032 µM
  TGI: 0.54 µM
[49]
  GI50: 0.041 µM
  TGI: 23.2 µM
[50]
  GI50: 0.0248 µM
  TGI: 0.07 µM
[51]
  GI50: 0.0302 µM
  TGI: 12 µM
[52]
  GI50: 0.0387 µM
  TGI: 6.34 µM
[53]
  GI50: 0.0248 µM
  TGI: 0.0573 µM
[54]
  GI50: 0.0376 µM
  TGI: 12 µM
[55]
  GI50: 0.0353 µM
  TGI: > 69.2 µM
[56]
  GI50: 0.0268 µM
  TGI: 0.0729 µM
[57]
  GI50: 6.48 µM
  TGI: > 91.7 µM
[58]
  GI50: 0.0383 µM
  TGI: > 43.6 µM

## O=C(NC(=S)Nc1cc(Cl)ccc1O)c1cccc(Br)c1
[1]
  GI50: 12.1 µM
  TGI: > 100 µM
[2]
  GI50: 6.19 µM
  TGI: > 100 µM
[3]
  GI50: 16.5 µM
  TGI: > 100 µM
[4]
  GI50: 17.1 µM
  TGI: > 100 µM
[5]
  GI50: 2.11 µM
  TGI: > 100 µM
[6]
  GI50: 38 µM
  TGI: > 100 µM
[7]
  GI50: 15.8 µM
  TGI: > 100 µM
[8]
  GI50: 6.54 µM
  TGI: > 100 µM
[9]
  GI50: 12.5 µM
  TGI: > 100 µM
[10]
  GI50: 4.15 µM
  TGI: > 100 µM
[11]
  GI50: 6.12 µM
  TGI: 56.3 µM
[12]
  GI50: 12.3 µM
  TGI: > 100 µM
[13]
  GI50: 4.78 µM
  TGI: > 100 µM
[14]
  GI50: 4.42 µM
  TGI: > 100 µM
[15]
  GI50: 6.85 µM
  TGI: 41 µM
[16]
  GI50: 6.85 µM
  TGI: > 100 µM
[17]
  GI50: 18.7 µM
  TGI: 92.3 µM
[18]
  GI50: 6.24 µM
  TGI: > 100 µM
[19]
  GI50: 4.94 µM
  TGI: > 100 µM
[20]
  GI50: 26.3 µM
  TGI: > 100 µM
[21]
  GI50: 4.72 µM
  TGI: 24.9 µM
[22]
  GI50: 6.78 µM
  TGI: > 100 µM
[23]
  GI50: 4.47 µM
  TGI: > 100 µM
[24]
  GI50: 5.77 µM
  TGI: 98 µM
[25]
  GI50: 7.83 µM
  TGI: > 100 µM
[26]
  GI50: 4.34 µM
  TGI: > 100 µM
[27]
  GI50: 10.5 µM
  TGI: 59.2 µM
[28]
  GI50: 3.71 µM
  TGI: > 100 µM
[29]
  GI50: 6.65 µM
  TGI: > 100 µM
[30]
  GI50: 28.6 µM
  TGI: > 100 µM
[31]
  GI50: 4.8 µM
  TGI: 51.9 µM
[32]
  GI50: 13.6 µM
  TGI: > 100 µM
[33]
  GI50: 13.9 µM
  TGI: > 100 µM
[34]
  GI50: 17 µM
  TGI: > 100 µM
[35]
  GI50: 57.1 µM
  TGI: > 100 µM
[36]
  GI50: 15.3 µM
  TGI: > 100 µM
[37]
  GI50: 9.67 µM
  TGI: > 100 µM
[38]
  GI50: 7.93 µM
  TGI: > 100 µM
[39]
  GI50: 6.21 µM
  TGI: > 100 µM
[40]
  GI50: 8.78 µM
  TGI: > 100 µM
[41]
  GI50: 69.3 µM
  TGI: > 100 µM
[42]
  GI50: 4.7 µM
  TGI: > 100 µM
[43]
  GI50: 3.59 µM
  TGI: 24.9 µM
[44]
  GI50: 17.1 µM
  TGI: 78.9 µM
[45]
  GI50: 5.78 µM
  TGI: > 100 µM
[46]
  GI50: 7.46 µM
  TGI: > 100 µM
[47]
  GI50: 4.77 µM
  TGI: > 100 µM
[48]
  GI50: 10.8 µM
  TGI: > 100 µM
[49]
  GI50: 19.4 µM
  TGI: > 100 µM
[50]
  GI50: 7.58 µM
  TGI: 35.8 µM
[51]
  GI50: 11.8 µM
  TGI: 75.8 µM
[52]
  GI50: 62.9 µM
  TGI: > 100 µM
[53]
  GI50: 7.12 µM
  TGI: > 100 µM
[54]
  GI50: 3.95 µM
  TGI: > 100 µM
[55]
  GI50: 3.68 µM
  TGI: > 100 µM
[56]
  GI50: 34.1 µM
  TGI: > 100 µM
[57]
  GI50: 9.33 µM
  TGI: 55.4 µM
[58]
  GI50: 7.34 µM
  TGI: > 100 µM
